Legend:
Anopholes gambiae = experiment: Dose dependent mosquito landing rate inhibition assay; format: in vivo; settings: treatment at 1.00%, FIG. 5
Description: (§1) Nepeta cataria plants were evaluated as insect repellents against Aedes aegypti and Anopholes gambiae mosquitoes in a landing rate inhibition assay against DEET as shown in FIGS. 4 and 5. A dose dependent curve was generated for all treatments and a time course analysis was performed with a crude essential oil sample. […] Between two and four hours the ability to generate 95% repellency diminished.
Repellency was determined by a one-choice landing assay that uses the amount of mosquito landings to calculate the overall effectiveness of the candidate repellent. Twenty, one day starved adult female Aedes aegypti mosquitoes were aspirated into a Bug Dorm Cage. Testing was performed between 10:00 am and 4:00 pm PST during A. aegypti's host seeking hours. A HotHands® heat pack was used as the heat source to attract the mosquitoes in the upper region of the back panel. Treatments were applied to a Whatman® filter paper and used to wrap the heat source. A control of just acetone was applied to the filter papers before and after each treatment to ensure reproducibility in mosquito behavior. […] Time lapse photography recorded one image every five seconds. A custom was used to count the mosquitoes automatically through the open source image processing software ImageJ.

Aedes aegypti = experiment: Dose dependent one-choice mosquito landing rate inhibition assay; format: in vivo
Description: as §1
Mosquito eggs were reared in water at 27° C. with 80% humidity and the mosquitoes were transferred during the rearing process with an eye dropper. The A. aegypti eggs were placed in a container holding water and once hatched and formed into larvae, they were separated from the unhatched eggs and placed into fresh water. General fish food tablets were used as the energy source for the maturing mosquitoes. As the mosquitoes began to form into pupae, they were separated from the smaller less developed larvae and placed into fresh water. This container was then placed into a Bug Dorm Cage where the pupae were allowed to mature into adults. […]
Repellency was determined by a one-choice landing assay that uses the amount of mosquito landings to calculate the overall effectiveness of the candidate repellent. […] Time lapse photography recorded one image every five seconds. […]

[1] = test system: two species of mosquitoes; settings: cited from earlier work
house and stable flies = settings: in vivo; cited from earlier work
[2] = test system: house dust mite species, poultry mites; settings: in vivo; cited from earlier work
harvester ants = settings: body contact; cited from earlier work

In the case of `CCN(CC)C(=O)c1cccc(C)c1` [DEET], the “decrease in landings of mosquitoes (repellency)” value (Anopholes gambiae) was greater than 95% and the “decrease in landings of mosquitoes (repellency)” value (Aedes aegypti; treatment at 1.00% on filter paper, FIG. 4) was greater than 95%.
For `CC1COC(=O)C2C(C)CCC12` (centres unmarked) [dihydronepetalactone 2], the “duration of complete protection” value ([1]; human subjects) is given as “up to five” and the “repelling efficacy compared with DEET” value ([1]; two species of mosquitoes) is given as “as effective at repelling two species of mosquitoes as DEET”.
In the case of Z, E nepetalactone, the repellency (house and stable flies) is given as “significant repellency”, the repellency [2] is given as “efficient in repelling” and the “speed of mortality compared with the other nepetalactones in catnip” value (harvester ants) is given as “mortality was achieved faster”. The “repellency percentage compared between treatments” value (Aedes aegypti; treatment at 0.10%) was “highest repellency percentage”.
